# According to US12458651B2, “Compounds and their uses for alleviating menopause-associated symptoms” (ESTETRA SRL, priority 2018, dated 2025):
# Read-outs that look alike come from different tables or passages of the source.
# Tests used:
# [1] = tested on: C-terminal telopeptide (CTX-1); test: C-terminal telopeptide (CTX-1), marker of bone resorption; type: in vivo
# postmenopausal women [2] = details: 2 mg estetrol per day for 28 days; cited from earlier work
# [3] = Triglycerides level at 15 mg and 20 mg daily doses; type: in vivo; details: 20 mg daily dose in place of 15 mg daily dose
# Description: In order to better assess the potential for increasing the daily dose beyond the minimum effective dose of 15 mg daily, a number of parameters were followed in a study where estetrol was administered at the increased dose of 20 mg per day.
# 1. Triglycerides Level (mmol/L)
# postmenopausal women [4] = details: cited from earlier work
# post-menopausal women [5] = test: GSM symptom: vaginal and/or vulvar irritation/itching; type: in vivo
# Description: (§1) Change from baseline to week 12 in the following GSM symptoms (VVA subject self-assessment) were recorded: • a) Vaginal dryness (sensation of dryness or burning in the vagina; none=0 mild=1, moderate=2 or severe=3):
# • b) Vaginal and/or vulvar irritation/itching (sensation of abnormal irritation or sensitive condition in the vagina; none=0, mild=1, moderate=2 or severe=3): […]
# post-menopausal women [6] = test: GSM symptom: dysuria; type: in vivo
# Description: as §1
# • c) Dysuria (sensation of pain or difficulty in urinating; none=0, mild=1, moderate=2 or severe=3): […]
# post-menopausal women [7] = test: Dose-finding study: hot flush weekly weighted score; type: in vivo; details: 10 mg per day
# Description: Further, the terms “Hot Flush Weekly Weighted Score”, as used herein, corresponds to a score taking into account frequency and severity which is calculated by using the severity score (as calculated above): [(1×No. of mild VMS)+(2×No. of moderate VMS)+(3×No. of severe VMS)] during a 7 day period.
# Such a weighted score was for example used by Notelovitz et al. (“Initial 17β-Estradiol Dose for Treating Vasomotor Symptoms”; Obstetrics and Gynaecology, Vol. 95(5), May 2000, p. 726-731). This score was used to generate the data included in Example 1 further below, under section A. c) “Hot Flush Weekly Weighted Score”.
compound,measurement,setting,value
"C[C@]12CC[C@@H]3c4ccc(O)cc4CC[C@H]3[C@@H]1[C@@H](O)[C@@H](O)[C@@H]2O [Estetrol, 1,3,5 (10)-estratrien-3,15alpha,16alpha,17beta-tetrol]","Bone resorption (CTX-1), decrease compared with 15 mg daily dose","[1]; 20 mg daily dose, after 28 days of treatment",more pronounced
same,"C-Terminal Telopeptide (CTX-1), Baseline, Mean",[1]; E4 15 mg daily,416.0 ng/L
same,"C-Terminal Telopeptide (CTX-1), Baseline, Median",[1]; E4 15 mg daily,339.0 ng/L
same,"C-Terminal Telopeptide (CTX-1), End Of Treatment Actual Change from Baseline, Mean","[1]; E4 15 mg daily, after 12 weeks",-95.0 ng/L
same,"C-Terminal Telopeptide (CTX-1), End Of Treatment Actual Change from Baseline, Median","[1]; E4 15 mg daily, after 12 weeks",-142.5 ng/L
same,"C-Terminal Telopeptide (CTX-1), End Of Treatment Actual Value, Mean","[1]; E4 15 mg daily, after 12 weeks",320.9 ng/L
same,"C-Terminal Telopeptide (CTX-1), End Of Treatment Actual Value, Median","[1]; E4 15 mg daily, after 12 weeks",197.5 ng/L
same,"C-Terminal Telopeptide (CTX-1), Baseline, Mean",[1]; E4 20 mg daily,422.50 ng/L
same,"C-Terminal Telopeptide (CTX-1), Baseline, Median",[1]; E4 20 mg daily,416.5 ng/L
same,"C-Terminal Telopeptide (CTX-1), End Of Treatment Actual Change from Baseline, Mean","[1]; E4 20 mg daily, after 28 days",-147.60 ng/L
same,"C-Terminal Telopeptide (CTX-1), End Of Treatment Actual Change from Baseline, Median","[1]; E4 20 mg daily, after 28 days",-138.0 ng/L
same,"C-Terminal Telopeptide (CTX-1), End Of Treatment Actual Value, Mean","[1]; E4 20 mg daily, after 28 days",274.9 ng/L
same,"C-Terminal Telopeptide (CTX-1), End Of Treatment Actual Value, Median","[1]; E4 20 mg daily, after 28 days",267.50 ng/L
same,Mean number of hot flushes and sweating,postmenopausal women [2],decrease
same,"Lipid parameters (triglycerides, cholesterol, HDL, LDL) and glucose level",[3],do not behave significantly differently
same,Endometrial thickness,postmenopausal women [4]; 2 mg estetrol per day,stable
same,Endometrial thickness,postmenopausal women [4]; 10 mg estetrol per day,increasing
same,"Vaginal and/or vulvar irritation/itching score (none=0 to severe=3), mean ± SD","post-menopausal women [5]; E4 2.5 mg, Baseline",0.7 ± 0.96
same,"Vaginal and/or vulvar irritation/itching score (none=0 to severe=3), mean ± SD","post-menopausal women [5]; E4 2.5 mg, Week 12",0.3 ± 0.60
same,"Vaginal and/or vulvar irritation/itching score (none=0 to severe=3), mean ± SD","post-menopausal women [5]; E4 5 mg, Baseline",0.6 ± 0.90
same,"Vaginal and/or vulvar irritation/itching score (none=0 to severe=3), mean ± SD","post-menopausal women [5]; E4 5 mg, Week 12",0.4 ± 0.65
same,"Vaginal and/or vulvar irritation/itching score (none=0 to severe=3), mean ± SD","post-menopausal women [5]; E4 10 mg, Baseline",0.7 ± 0.87
same,"Vaginal and/or vulvar irritation/itching score (none=0 to severe=3), mean ± SD","post-menopausal women [5]; E4 10 mg, Week 12",0.3 ± 0.64
same,"Vaginal and/or vulvar irritation/itching score (none=0 to severe=3), mean ± SD","post-menopausal women [5]; E4 15 mg, Baseline",0.5 ± 0.85
same,"Vaginal and/or vulvar irritation/itching score (none=0 to severe=3), mean ± SD","post-menopausal women [5]; E4 15 mg, Week 12",0.4 ± 0.70
same,"Dysuria score (none=0 to severe=3), mean ± SD","post-menopausal women [6]; E4 2.5 mg, Baseline",0.2 ± 0.56
same,"Dysuria score (none=0 to severe=3), mean ± SD","post-menopausal women [6]; E4 2.5 mg, Week 12",0 ± 0.19
same,"Dysuria score (none=0 to severe=3), mean ± SD","post-menopausal women [6]; E4 5 mg, Baseline",0.2 ± 0.56
same,"Dysuria score (none=0 to severe=3), mean ± SD","post-menopausal women [6]; E4 5 mg, Week 12",0 ± 0.20
same,"Dysuria score (none=0 to severe=3), mean ± SD","post-menopausal women [6]; E4 10 mg, Baseline",0.2 ± 0.58
same,"Dysuria score (none=0 to severe=3), mean ± SD","post-menopausal women [6]; E4 10 mg, Week 12",0.1 ± 0.23
same,"Dysuria score (none=0 to severe=3), mean ± SD","post-menopausal women [6]; E4 15 mg, Baseline",0.3 ± 0.58
same,"Dysuria score (none=0 to severe=3), mean ± SD","post-menopausal women [6]; E4 15 mg, Week 12",0.3 ± 0.61
same,"Relative change (% from baseline) in hot flush weekly weighted score, mean",post-menopausal women [7]; week 0,0%
same,"Relative change (% from baseline) in hot flush weekly weighted score, mean (section B analysis)",post-menopausal women [7]; week 0,0%
same,"Relative change (% from baseline) in hot flush weekly weighted score, mean (section B analysis)",post-menopausal women [7]; week 1,−20%
same,"Relative change (% from baseline) in hot flush weekly weighted score, mean (section B analysis)",post-menopausal women [7]; week 2,−34%
same,"Relative change (% from baseline) in hot flush weekly weighted score, mean (section B analysis)",post-menopausal women [7]; week 3,−46%
same,"Relative change (% from baseline) in hot flush weekly weighted score, mean (section B analysis)",post-menopausal women [7]; week 4,−53%
same,"Relative change (% from baseline) in hot flush weekly weighted score, mean (section B analysis)",post-menopausal women [7]; week 5,−57%
same,"Relative change (% from baseline) in hot flush weekly weighted score, mean (section B analysis)",post-menopausal women [7]; week 6,−62%
same,"Relative change (% from baseline) in hot flush weekly weighted score, mean (section B analysis)",post-menopausal women [7]; week 7,−64%
same,"Relative change (% from baseline) in hot flush weekly weighted score, mean (section B analysis)",post-menopausal women [7]; week 8,−66%
